Experimental data from patent US8476317B2, “N-alkylcarbonyl-amino acid ester compounds and their use for cough and pharyngitis” (priority 2011, dated 2013).

Assays:
oral cavity / oropharynx = assay: Cooling in oral cavity after application on dorsal surface of tongue; format: in vivo, human; settings: for sensory irritation in oral cavity: 2 to 5 mg on tongue
Description: The subject is instructed to close and hold the substance in the mouth for at least 10 seconds and not to swallow. The description of sensations is then recorded at 5 to 10 minute intervals.
The compounds of Formula 1 are white crystalline solids at room temperatures. These compounds were tested as the pure powder (>95% purity, by HPLC analysis), or mixed 1:1 with powdered or granulated sugar. The test substances were applied at 2 to 5 mg on the mid-point of the dorsal surface of the tongue using a metal spatula or a plastic applicator. After depositing the test substance on the tongue, the subject was instructed to keep the mouth closed and allow the fluids of the mouth to inter-mix with the test substance and to distribute it to the back of the mouth (oropharynx). The presence and duration of subjective sensations from the mouth was then recorded.

philtrum skin [1] = settings: ˜10 mg/ml on the skin; as shown in U.S. 20080227857; cited from earlier work
ocular surface = assay: Eye wipe test, duration of cooling on ocular surface; format: in vivo, human; settings: eye wipes 1 mg/ml in 5%-95% v/v ethanol-distilled water
Description: To further document the activities fo the test molecules, the results from an eye wipe test was included. Here the test substance is applied to the closed eyelids with a towelette at a concentration of 1 mg/ml in 5%-ethanol-95%-distilled water vol/vol and the duration of cooling on the ocular surface was recorded. […] It is likely that the mucous membranes that line the ocular surface and the pharynx have similar sensory mechanisms that are somewhat different from the philtrum skin which is keratinized.

philtrum skin [2] = assay: Cooling on facial (philtrum) skin, ointment; format: in vivo, human; settings: for Philtrum Skin (min), duration of cooling: 5 mg/ml in Aquaphor ointment
From the text: A reliable place for topical application is the skin above the upper lip (above the vermilion border of the lips), on the philtrum, lateral to the philtrum until the nasolabial folds, and on the lower nostrils (subnasale). This part of the face is known to be densely innervated with cold receptors, second only to the surfaces of the eyeball and anogenitalia. At this locus, tingling, cool and cold sensations in the skin may be experienced and rated for time of onset and intensity.
The intervals for recording sensations are 5 to 10 minutes, until two successive zeroes are obtained. The results (shown in FIG. 1) are averaged values of 4 to 6 separate trials in the same individual. The data are plotted using SigmaPlot® (Systat Software, Point Richmond Calif.) and a smoothing function with a negative exponential was used for analysis and statistical fit of the results. Confirmatory trials of cooling action of the long-acting NACE compounds were obtained in 2 to 4 individuals but not quantified for some because of the large number of chemicals that were evaluated.
(§1) The onset of drug action is taken as the time to reach 2 units of coolness intensity, and offset of drug action is the time when coolness intensity drops below 2, after previously surpassing 2 units. The duration of cooling action is defined as the offset time minus the onset time. […] The quality of the sensation is noted, for example, as pure refreshing coolness, or if the sensation is accompanied by irritation (stinging or burning). The quality of the sensation is not rated for intensity.
For bioassay on the skin, approximately 30 mg was stirred and dissolved in 3 g of warm liquid Aquaphor® ointment to a yield a 40 mM (˜1% wt/vol) ointment. The exact amount was adjusted so that the molar equivalent was about 35 to 40 mM. After cooling, 40 to 70 mg of the solid ointment was placed on the tip of a plastic stick and applied to the skin above the upper lip, on the philtrum, and lateral to the philtrum, up to the nasolabial folds, of test subjects and the onset and duration of cooling sensations noted.
The intervals for recording sensations were 5 to 10 minutes, until two successive zeroes were obtained. The results (shown in FIG. 1) are averaged values of 4 to 6 separate trials in the same individual. The data are plotted using SigmaPlot® (Systat Software, Point Richmond, Calif., USA) and a smoothing function with a negative exponential was used for analysis and statistical fit of the results.
as §1, with “was” for “is”, “was also noted: such” for “is noted, for example,”
In the results of FIG. 1, the test compounds were singly applied to the skin above the upper lips as a ˜1% wt/vol (10 mg/ml) ointment. Subsequently, for the results shown in Table 3, the test dose on the philtrum was reduced to a 0.5% wt/vol (5 mg/ml) ointment. The reason for choosing a lower dose was to increase the number of trials per individual and to have a reduced chance of substances accumulating in the skin.

pharyngeal surface = assay: Chili-pepper sauce cough challenge test; format: in vivo, human; parameters: key: If there is no attenuation of the challenge stimuli, the score is 0; if there is partial inhibition, the score is +; if there is complete attenuation of the cough signal, the score is ++; settings: challenge 45 to 50 min after ODT containing 2 mg of test substance
From the text: A number of cough challenge methods have been devised for evoking the cough reflex (Morice et al. Briti. J. Clin. Pharmacol. 52: 365-375, 2001). Usually, citric acid or capsaicin is delivered via the inhalation route to volunteers and the number of coughs counted. […] The chili pepper sauce used here is called Yank Sing® Chili Pepper Sauce (YS Gourmet Productions, Inc., PO Box 26189, San Francisco, Calif. 94126) and is a well-known condiment for use with dim sum (Chinese tea lunch). The sensations associated with the chili pepper sauce are located in the back of the mouth and are clearly recognized and associated with a desire to clear the throat. […] To test for anti-cough activity the ODT with the test substance is first administered onto the dorsal surface of the tongue and 45 to 50 min afterwards the chili-pepper sauce test is administered. If there is no attenuation of the challenge stimuli, the score is 0, if there is partial inhibition, the score is +, and if there is complete attenuation of the cough signal, the score is ++. In the presence of an ODT that results in a ++ score, the irritative signals are completely absent, yet the salty taste used in the soy sauce of the condiment can still be easily tasted. The test substances in the ODT that produced a ++ score were then identified and further tested for effectiveness in the treatment of cough.

[3] = test system: dorsal surface of the tongue; settings: average of 6 subjects, filter paper on tongue; Watson et al.; cited from earlier work
cough = format: in vivo, human
Description: In 20 trials, 10 trials per subject, two mg of 95%+ pure powder of a D-Ala ethyl compound (No. 2 in Table 1, (R)-2-[((1R,2S,5R)-2-isopropyl-5-methyl-cyclohexanecarbonyl)-amino]-propionic acid ethyl ester)) of Formula (1) was placed on the mid-portion of the tongue of these two subjects. Both subjects reported relief from the desire to cough within 1 minute after application. Sensations of robust coolness in the back of the throat was noted and lasted for about 30 minutes. Applications of similar amounts of powdered sugar were not effective. The placebo could be clearly distinguished from the active compound because of the absence of cooling sensations.
A person with a documented 31-year history of asthma attacks volunteered to test one of the compounds falling within Formula (1). They were extremely sensitive to agents such as tobacco smoke, dust, pollen, odors, down/woolen materials, house cleansing products, pets, and sudden change of air temperature, and reacted with violent coughing, mucus secretions, wheezing, choking, and shortness of breath. At the time of this trial, they were taking these medications for their condition: theophylline, Allegra®, Advair®, Intal®, and Singulair®. In 5 trials, during a coughing spree, they placed one to two mg of 95%+ pure powder of a D-Ala ethyl ester (No. 2 in Table 1, ((R)-2-[((1R,2S,5R)-2-isopropyl-5-methyl-cyclohexanecarbonyl)-amino]-propionic acid ethyl ester))) of Formula (1) on the mid-portion of their tongue. They reported a soothing and cool sensation with a slight taste similar to Eucalyptus oil in their mouth and throat. Coughing stopped after 3 to 5 minutes and breathing was normal. […] In three trials when the compound was applied at night, they slept through the night without being awakened by cough. Their spouse remarked that, in over 30 years of marriage, this was the first time that they had seen an effective medication for their cough. They noted that the irritative signals of cough were absent in the presence of the applied chemical, but they still sensed a mechanical build up of secretions in their airways and could voluntarily cough up such secretions if necessary. They continue to use the test compound for management of their asthma, with the knowledge and consent of their physician.
A person had adult-onset asthma for 20 years. Triggers for attacks were tobacco smoke, dust, and changes in air temperature. They used Foradil® (formoterol fumarate) and Asmanex® (mometasone fuorate) twice a day to control their asthma, and monitored their pulmonary function with a portable device for measuring peak expiratory flow. They had daily episodes of both productive and non-productive cough. In 5 trials, when they felt throat irritation and a desire to cough, placement of 1 to 3 mg of (R)-2-[((1R,2S,5R)-2-isopropyl-5-methyl-cyclohexanecarbonyl)-amino]-propionic acid ethyl ester) (No. 2 in Table 1) provided rapid relief and was described as soothing and removed “tightness” in the chest. Peak expiratory flow improved from 320 Umin to 370 Umin. […] The subjective response to the long-acting NACE compound was definitely favourable. The subject remarked that the best time to use the NACE compuound was after inhaling the crystalline Foradil® because this inhaled drug irritated their throat.
ODT containing 2.0 to 2.5 mg of D-Aa Me Ester, D-Ala Et Ester, or D-Ala iPr Ester (identified chemically in Table 1 as No. 1, No. 2, and No. 3, respectively) were prepared using mannitol/maltitol as the excipient and stored in tic-tac boxes each containing 10 tablets. Over a course of two years, 14 adult males with cough tested these tablets. The causes of coughing were colds/flu, allergies, pharyngitis, excessive smoking, and two cases of gastroesophageal reflux. These individuals all had advanced degrees (M.D. or Ph.D.) and were motivated to try the tablets by scientific curiosity or because of financial interests in drug development, or, in several cases, by the annoyance caused by the cough. […]

Row | Structure (SMILES) | Eyelids/Ocular Surface (min), duration of cooling (ocular surface) [min] | Philtrum Skin (min), duration of cooling (philtrum skin [2]) [min] | Chili-Pepper Sauce Test (pharyngeal surface) | further results
1 | CNC(=O)C(C)(C(C)C)C(C)C [WS-23] | – | – | – | sensory irritation in oral cavity (oral cavity / oropharynx): some sensory irritation; duration / onset of action on the skin (philtrum skin [1]): short duration of action (less than 1 hour) at ˜10 mg/ml on the skin or slow onset (more than 5 minutes)
2 | CCCCOC(=O)CNC(=O)[C@@H]1C[C@H](C)CC[C@H]1C(C)C [Gly-OnBu] | 35 | 38 | 0 | –
3 | CC1CCC(C(C)C)C(O)C1 (single isomer, unassigned; (-)) [(−)-menthol, reference compound] | – | – | – | Threshold, μg (cooling on tongue) [3]: 0.25 µg; duration of cooling action of ODT (oral cavity / oropharynx; ODT containing 5 to 10 mg): less than 10 minutes; Cooling on tongue (oral cavity / oropharynx; Table 2 summary): yes; Acts for >1 hour at 40 mM (philtrum skin [2]; 40 mM ointment on skin): no; "perfect" cooling experience (philtrum skin [2]; Table 2 summary): no; Cooling on skin of face (philtrum skin [2]; Table 2 summary): yes; Eye Irritancy (philtrum skin [2]; Table 2 summary): yes
4 | CCOC(=O)C(C)NC(=O)[C@@H]1C[C@H](C)CC[C@H]1C(C)C (stereo partly drawn) [L-Ala-OnBu] | 0 | 0 | 0 | –
5 | CCCOC(=O)C(C)NC(=O)[C@@H]1C[C@H](C)CC[C@H]1C(C)C (stereo partly drawn) [D-Ala-OnPr] | 65 | 108 | + | –
6 | CCNC(=O)C1CC(C)CCC1C(C)C (stereo not drawn) [WS-3] | – | – | – | sensory irritation in oral cavity (oral cavity / oropharynx): some sensory irritation; duration / onset of action on the skin (philtrum skin [1]): short duration of action (less than 1 hour) at ˜10 mg/ml on the skin or slow onset (more than 5 minutes)
7 | CC(C)OC(=O)[C@@H](C)NC(=O)[C@@H]1C[C@H](C)CC[C@H]1C(C)C [D-Ala-OiPr, (R)-2-[((1R,2S,5R)-2-isopropyl-5-methyl-cyclohexanecarbonyl)-amino]-propionic acid isopropyl ester] | 360 | 34 | ++ | skin or eye irritancy (philtrum skin [2]; in vivo): without skin or eye irritancy; cooling action of ODT on the pharyngeal surface (cough; Study 6, ODT): robust cooling action; effectiveness in reducing cough (cough; Study 6, ODT 2.0 to 2.5 mg, 14 adult males with cough): 100%
8 | CCOC(=O)C(C)NC(=O)[C@@H]1C[C@H](C)CC[C@H]1C(C)C (stereo partly drawn) [L-Ala-OiPr] | 15 | 27 | 0 | –
9 | CCOC(=O)C(C)NC(=O)[C@@H]1C[C@H](C)CC[C@H]1C(C)C (stereo partly drawn) [L-Ala-OnPr] | 10 | 22 | 0 | –
10 | CCCCOC(=O)C(C)NC(=O)[C@@H]1C[C@H](C)CC[C@H]1C(C)C (stereo partly drawn) [D-Ala-OnBu] | 40 | 80 | 0 | –
11 | COc1ccc(NC(=O)[C@@H]2C[C@H](C)CC[C@H]2C(C)C)cc1 [WS-12] | – | – | – | duration / onset of action on the skin (philtrum skin [1]): short duration of action (less than 1 hour) at ˜10 mg/ml on the skin or slow onset (more than 5 minutes)
12 | CCCOC(=O)CNC(=O)[C@@H]1C[C@H](C)CC[C@H]1C(C)C [Gly-OnPr] | 54 | 42 | 0 | –
